{"source": "patent US4205086A", "about": "“Method for the treatment of gallstones” (priority 1977, dated 1980)", "key": {"[1]": {"test": "studies evaluating the solubility of gallstones in a variety of compounds (Example 3)", "settings": "observed for several days", "experimental": "Studies are conducted to evaluate the solubility of gallstones in a variety of compounds."}, "[2]": {"test": "viscosity of compounds used for perfusion (in words)", "assay_type": "physicochemical", "text": "It is also preferable that the compound not be excessively viscous at the perfusion temperature in view of the need for the compound to move through the perfusion equipment and to pass over or around the gallstone. The degree of viscosity which is tolerable, and the compounds therefore useful in the present invention, may be readily determined by experiment. […] Fatty acids useful in the present invention are generally those having short to medium carbon chain lengths, or from about 2 to about 12 carbon atoms. […]. As previously mentioned, these fatty acids which have melting points above body temperature, which is approximately 37° C., may be combined with the fatty acids which are liquid at body temperature to provide a liquid mixture having relatively low proportions of the higher fatty acids."}, "[3]": {"test": "treatment of gallstones by perfusion, general results in practice", "assay_type": "in vivo, human (patient)", "settings": "for solvency for the gallstones: in vivo; for results in treatment of gallstones: perfusion", "text": "In accordance with the method of the present invention a selected compound is perfused adjacent the gallstone. For the purposes herein, the term perfusion is intended to encompass the introduction of the compound in a manner that will cause the compound to pass over or around the subject gallstone, and includes equivalent terms such as infusion. The perfusion may be accomplished in accordance with normal procedures, and for example may be performed with a T-tube or an endoscope. The compound utilized by the present invention thereby contacts and gradually dissolves the gallstone. The response of the gallstone to this procedure may be followed, for example, by repeated cholangiograms.\nA compound useful in accordance with the method of the present invention may also comprise a mixture of fatty acids and alcohol esters of fatty acids. Typically the fatty acid esters would be esters of the same fatty acids which exist separately in the solution, although such is not required. It is preferred that the fatty acids which exist either as themselves or in the ester form have from about 2 to about 12 carbon atoms, with from about 8 to about 10 carbon atoms being more preferred. In a most preferred embodiment of the present invention, the method comprises the perfusion of a compound having a mixture of fatty acids from about 8 to about 10 carbon atoms and alcohol esters, particularly glycerides, of fatty acids having from about 8 to about 10 carbon atoms. […]."}, "[4]": {"settings": "cited from earlier work; for solubilizing capacity for gallstones: 100-200 mM solutions; for tolerability by patients / toxicity: organic solvents"}, "[5]": {"test": "test comparing the solubility of gallstones in glycerol mono-octanoate and 200 mM sodium cholate (Example 2)", "set-up": "species or system human (patient)", "settings": "six days; sodium cholate 200 mM, mono-octanoate solution as in Example 1"}}, "note": "Read-outs that look alike come from different tables or passages of the source.", "data": [{"compound": "glycerol di-decanoate", "values": [{"measurement": "solubility of gallstones in the compound", "setting": "[1]", "result": "suitably soluble"}]}, {"compound": "propylene glycol mono-octanoate", "values": [{"measurement": "viscosity", "setting": "[2]", "result": "low viscosity"}, {"measurement": "solvency for the gallstones", "setting": "[3]", "result": "high solvency"}, {"measurement": "results in treatment of gallstones", "setting": "[3]", "result": "particularly excellent results"}]}, {"compound": "Oxycholic acid", "values": [{"measurement": "solubilizing capacity for gallstones", "setting": "[4]; prior art", "result": "definite but low"}, {"measurement": "bile acid diarrhea", "setting": "[4]; in vivo", "result": "often with bile acid diarrhea"}, {"measurement": "time to disappearance of distal common bile duct stones", "setting": "[4]; uncontrolled studies", "result": "1-4 weeks"}]}, {"compound": "C[C@H](CCC(=O)O)[C@H]1CC[C@H]2[C@@H]3[C@H](O)C[C@@H]4C[C@H](O)CC[C@]4(C)[C@H]3C[C@H](O)[C@]12C", "note": "[sodium cholate]", "values": [{"measurement": "solubilizing capacity for gallstones", "setting": "[4]; prior art", "result": "definite but low"}, {"measurement": "bile acid diarrhea", "setting": "[4]; uncontrolled studies", "result": "often with bile acid diarrhea"}, {"measurement": "time to disappearance of distal common bile duct stones", "setting": "[4]; uncontrolled studies", "result": "1-4 weeks"}, {"measurement": "change in size of stones", "setting": "[5]", "result": "little or no apparent change"}]}, {"compound": "ClC(Cl)Cl", "note": "[chloroform]", "values": [{"measurement": "tolerability by patients", "setting": "[4]; prior art", "result": "poorly tolerated"}, {"measurement": "toxicity", "setting": "[4]; prior art", "result": "potentially toxic"}]}, {"compound": "C=C(C)[C@H]1CC=C(C)CC1", "note": "[d-limonene]", "values": [{"measurement": "tolerability by patients", "setting": "[4]; prior art", "result": "poorly tolerated"}, {"measurement": "toxicity", "setting": "[4]; prior art", "result": "potentially toxic"}, {"measurement": "results in dissolution of gallstones", "setting": "[4]; prior art", "result": "without highly favorable results"}]}, {"compound": "CCCCCCCC(=O)OCCO", "note": "[ethylene glycol mono-octanoate]", "values": [{"measurement": "solubility of gallstones in the compound", "setting": "[1]", "result": "suitably soluble"}]}, {"compound": "CCCCCCCC(=O)OCC(O)CO", "note": "(stereo not shown) [glycerol mono-octanoate]", "values": [{"measurement": "solubility of gallstones in the compound", "setting": "[1]", "result": "suitably soluble"}, {"measurement": "viscosity", "setting": "[2]", "result": "low viscosity"}, {"measurement": "tolerability and adverse symptoms or effects", "setting": "human, in vivo", "result": "tolerated the procedure well and showed no adverse symptoms or effects"}, {"measurement": "stones on follow-up after six days of perfusion", "setting": "perfused at 5 ml per hour, after six days, patient", "result": "only two very small lucencies were apparent"}, {"measurement": "stones on follow-up after 3 additional days of perfusion", "setting": "perfused at 5 ml per hour, six days plus 3 additional days, patient", "result": "no evidence of the stones"}, {"measurement": "results of similar clinical trials", "setting": "similar clinical trials at the Mayo Clinic", "result": "equally good results"}, {"measurement": "solvency for the gallstones", "setting": "[3]", "result": "high solvency"}, {"measurement": "results in treatment of gallstones", "setting": "[3]", "result": "excellent results"}, {"measurement": "results in treatment of gallstones", "setting": "[3]; listed as mono-glyceride of octanoic acid", "result": "particularly excellent results"}]}, {"compound": "heparin", "values": [{"measurement": "fragmentation or dissolution of gallstones", "setting": "[4]; in saline solution, prior art", "result": "function poorly"}]}, {"compound": "CCCCCCCC(=O)OCC(COC(=O)CCCCCCC)OC(=O)CCCCCCC", "note": "[glycerol tri-octanoate]", "values": [{"measurement": "solubility of gallstones in the compound", "setting": "[1]", "result": "suitably soluble"}]}, {"compound": "CCCCCCCC(=O)OCC", "note": "[ethanol octanoate]", "values": [{"measurement": "solubility of gallstones in the compound", "setting": "[1]", "result": "suitably soluble"}]}, {"compound": "CCCCCCCCCC(=O)OCCCC", "note": "[butanol decanoate]", "values": [{"measurement": "solubility of gallstones in the compound", "setting": "[1]", "result": "suitably soluble"}]}, {"compound": "C[C@H](CCC(=O)O)[C@H]1CC[C@H]2[C@@H]3[C@H](O)C[C@@H]4C[C@H](O)CC[C@]4(C)[C@H]3CC[C@]12C", "note": "[Kenodeoxycholic acid]", "values": [{"measurement": "results in dissolution of gallstones", "setting": "[4]; prior art", "result": "more preferable, but also is relatively slow"}]}, {"compound": "CCOCC", "note": "[ether]", "values": [{"measurement": "tolerability by patients", "setting": "[4]; prior art", "result": "poorly tolerated"}, {"measurement": "toxicity", "setting": "[4]; prior art", "result": "potentially toxic"}, {"measurement": "results in dissolution of gallstones", "setting": "[4]; prior art", "result": "without highly favorable results"}]}]}
